The source of these data is ChEMBL document CHEMBL5356970, “Syntheses of the ω-pyridinium-containing very-long-chain ceramides PyrCer(24:1(15Z)) and PyrCer(24:0) and their anticancer activity” (Bioorg Med Chem Lett, 2024).

SMILES strings stand for the structures. pIC50: −log10 of the molar value. Where only a bound is given, the exact number is not on record here.

Usually pIC50 stands for the negative decadic logarithm of the IC50, by convention in mol/L.

This assay concerns HepG2. The assay can be described thus: Anticancer activity against human HepG2 cells assessed as reduction in cell survival. It is filed as functional, cell-based.
On to `CCCCCCCCCCCCC/C=C/[C@@H](O)[C@H](CO)NC(=O)CCCCCCCCCCCCCCCCCCCCCCC`, for which the pIC50 was 3.72. Take `CCCCCCCC/C=C\CCCCCCCCCCCCCC(=O)N[C@@H](CO)[C@H](O)/C=C/CCCCCCCCCCCCC`: the pIC50 is less than 3.70. With `CCCCCCCCCCCCC/C=C/[C@@H](O)[C@H](CO)NC(=O)CCCCCCCCCCCCC/C=C\CCCCCCCC[n+]1ccccc1`, the pIC50 is 6.00. For `CCCCCCCCCCCCC/C=C/[C@@H](O)[C@H](CO)NC(=O)CCCCCCCCCCCCCCCCCCCCCCC[n+]1ccccc1`, the pIC50 was 5.00.
